Calls of active or inactive are those of the source. No cut-off for these calls is given here.
Tests used:
[1] = target: T1, Peroxisome proliferator-activated receptor gamma (Homo sapiens, UniProt P37231)
T1 sequence (P37231 whole entry): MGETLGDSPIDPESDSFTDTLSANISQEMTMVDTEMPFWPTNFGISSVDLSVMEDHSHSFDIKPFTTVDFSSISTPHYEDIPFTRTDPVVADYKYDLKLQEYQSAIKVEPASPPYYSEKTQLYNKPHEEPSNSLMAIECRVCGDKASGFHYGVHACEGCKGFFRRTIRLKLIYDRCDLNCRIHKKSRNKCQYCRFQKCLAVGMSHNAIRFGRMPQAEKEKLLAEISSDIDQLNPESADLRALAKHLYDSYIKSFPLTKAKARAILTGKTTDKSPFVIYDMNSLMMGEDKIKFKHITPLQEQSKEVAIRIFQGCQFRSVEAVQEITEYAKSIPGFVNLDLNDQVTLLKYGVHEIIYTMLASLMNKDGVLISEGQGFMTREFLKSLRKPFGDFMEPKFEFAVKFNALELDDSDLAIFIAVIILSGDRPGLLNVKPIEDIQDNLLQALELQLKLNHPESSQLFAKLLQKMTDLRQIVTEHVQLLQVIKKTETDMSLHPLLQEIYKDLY

[2] = target: T2, Peroxisome proliferator-activated receptor alpha (Homo sapiens, UniProt Q07869); test: Binding affinity to GST-tagged human PPARalpha by TR-FRET analysis
T2 sequence (Q07869 whole entry): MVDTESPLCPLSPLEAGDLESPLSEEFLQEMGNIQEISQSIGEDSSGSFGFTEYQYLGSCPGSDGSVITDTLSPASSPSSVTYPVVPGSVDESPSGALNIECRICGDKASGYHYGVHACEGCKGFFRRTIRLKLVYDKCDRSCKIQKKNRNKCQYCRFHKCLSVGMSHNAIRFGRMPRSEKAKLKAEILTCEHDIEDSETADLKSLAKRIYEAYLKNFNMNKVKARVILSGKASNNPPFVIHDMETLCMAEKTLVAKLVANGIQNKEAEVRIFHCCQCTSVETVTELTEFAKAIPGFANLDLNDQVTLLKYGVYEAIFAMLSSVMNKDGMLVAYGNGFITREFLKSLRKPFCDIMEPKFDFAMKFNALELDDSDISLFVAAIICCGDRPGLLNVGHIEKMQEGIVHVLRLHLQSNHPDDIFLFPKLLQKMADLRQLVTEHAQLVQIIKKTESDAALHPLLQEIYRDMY

[3] = target: T3, Peroxisome proliferator-activated receptor delta (Homo sapiens, UniProt Q03181); details: cv-1
T3 sequence (Q03181 whole entry): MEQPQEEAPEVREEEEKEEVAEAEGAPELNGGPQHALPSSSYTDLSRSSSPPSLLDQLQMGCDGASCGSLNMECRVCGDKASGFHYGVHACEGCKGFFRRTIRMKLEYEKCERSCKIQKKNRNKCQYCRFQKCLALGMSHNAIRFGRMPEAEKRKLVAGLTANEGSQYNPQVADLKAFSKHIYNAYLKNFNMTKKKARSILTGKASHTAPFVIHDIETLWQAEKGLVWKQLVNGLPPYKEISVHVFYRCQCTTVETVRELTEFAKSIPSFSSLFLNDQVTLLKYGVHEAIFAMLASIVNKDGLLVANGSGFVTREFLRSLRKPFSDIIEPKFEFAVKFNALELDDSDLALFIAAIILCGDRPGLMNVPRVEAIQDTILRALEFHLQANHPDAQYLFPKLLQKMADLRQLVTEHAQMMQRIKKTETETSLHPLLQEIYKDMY

[4] = test system: 3T3-L1; test: Induction of preadipocyte differentiation in mouse 3T3L1 cells assessed as […] in lipid droplet accumulation at 10 uM Oil Red O staining; type: functional, cell-based
[5] = target: T2, Peroxisome proliferator-activated receptor alpha; test: Transactivation of human PPARalpha expressed in african green monkey CV1 cells by luciferase reporter gene assay; type: cell-based, CV-1
[6] = target: T1, Peroxisome proliferator-activated receptor gamma; test: Transactivation of human PPARgamma expressed in african green monkey CV1 cells by luciferase reporter gene assay; type: cell-based, CV-1
[7] = test system: HepG2; test: Increase in CPT1 mRNA expression in human HepG2 cells at 10 uM; type: functional, cell-based
[8] = test system: 3T3-L1; test: Induction of preadipocyte differentiation in mouse 3T3L1 cells assessed as increase in lipid droplet accumulation at 10 uM Oil Red O staining relative to control; type: functional, cell-based
[9] = test system: HepG2; test: Increase in ACS mRNA expression in human HepG2 cells at 10 uM; type: functional, cell-based
[10] = target: T4, Peroxisome proliferator-activated receptor gamma (Homo sapiens) (UniProt P37231); test: Transactivation of human PPARgamma expressed in african green monkey CV1 cells at 30 uM by luciferase reporter gene assay relative to […]; type: cell-based; details: CV-1
T4 sequence (whole entry): T1 sequence (P37231 whole entry)

[11] = target: T5, Peroxisome proliferator-activated receptor alpha (Homo sapiens) (UniProt Q07869); test: Transactivation of human PPARalpha expressed in african green monkey CV1 cells at 30 uM by luciferase reporter gene assay relative to Wy14643; type: cell-based; details: CV-1
T5 sequence (whole entry): T2 sequence (Q07869 whole entry)

[12] = target: T6, Peroxisome proliferator-activated receptor delta (Homo sapiens) (UniProt Q03181); details: CV-1, 30 uM
T6 sequence (whole entry): T3 sequence (Q03181 whole entry)

SMILES | IC50 [1] [nM] | IC50 [2] [nM] | EC50 [3] | Activity [4] | EC50 [5] [µM] | EC50 [6] [µM] | Activity [7] | Activity [8] | Activity [9] | Emax [10] [%] | Emax [11] [%] | Emax [12] [%]
CC(C)=CCC/C(C)=C/Cc1c(O)cc(/C=C/c2ccc(Cl)cc2)cc1O | 540 | 7470 | Not Active |  |  |  |  |  |  |  |  | 
CC(C)=CCC/C(C)=C/Cc1c(O)cc(/C=C/c2cccc(C(F)(F)F)c2)cc1O | 530 | 1210 | Not Active | Active | 4 | 5 | Active |  |  |  |  | 
CC(C)=CCC/C(C)=C/Cc1c(O)cc(/C=C/c2ccccc2)cc1O [AMORPHASTILBOL] | 850 | 1520 | Not Active |  | 12 | 5 | Active | Active | Active | 83 | 66 | 
CC(C)=CCC/C(C)=C/Cc1c(O)cc(/C=C/c2ccc(C#N)cc2)cc1O | 1200 | 3470 | Not Active |  | 20 |  |  |  |  | 41 | 54 | 
CC(C)=CCC/C(C)=C/Cc1c(O)cc(/C=C/c2ccc(F)cc2)cc1O | 2320 | 2480 | Not Active |  | 6 | 11 |  |  |  | 68 | 88 | 17
CC(C)=CCC/C(C)=C/Cc1c(O)cc(/C=C/c2ccoc2)cc1O | 650 | 2030 | Not Active | Active | 6 | 5 |  |  | Active | 98 | 87 | 34
CC(C)=CCC/C(C)=C/Cc1c(O)cc(/C=C/c2ccc(C=O)cc2)cc1O | 890 | 2820 | Not Active |  |  |  |  |  |  | 27 | 35 | 
CC(C)=CCC/C(C)=C/Cc1c(O)cc(/C=C/c2ccc(C(F)(F)F)cc2)cc1O | 8100 | 3330 | Not Active |  |  |  |  |  |  |  |  | 
CC(C)=CCC/C(C)=C/Cc1c(O)cc(/C=C/c2ccc(O)cc2)cc1O | 110 | 1210 | Not Active |  | 8 | 8 |  |  |  |  |  | 
CC(C)=CCC/C(C)=C/Cc1c(O)cc(/C=C/c2ccsc2)cc1O | 1010 | 5410 | Not Active |  | 14 | 6 |  |  |  | 68 | 56 | 
CC(C)=CCC/C(C)=C/Cc1c(O)cc(/C=C/c2cc(F)cc(F)c2)cc1O | 900 | 2080 | Not Active |  |  | 7 |  |  |  |  |  | 
COc1ccc(/C=C/c2cc(O)c(C/C=C(\C)CCC=C(C)C)c(O)c2)cc1 | 630 | 2500 | Not Active |  | 19 | 14 |  |  |  | 66 | 63 | 

— ChEMBL document CHEMBL2029250 (Bioorg Med Chem Lett, 2012)
